Laboratory results taken from patent US20160244390A1, “Etherified Tri-Butylphenol Alkoxylates, Process For Their Preparation And Their Use In Crop Protection Agents” (CLARIANT INTERNATIONAL LTD, priority 2013, published 2016).

Experiments:
[1] = Dynamic surface tension by the bubble pressure method (wetting agent effect); assay type: physicochemical; conditions: for Dynamic surface tension: 22° C.
Description: The dynamic surface tension was determined by the bubble pressure method (BP2100 tensiometer, Krúss) on a timescale relevant for spray application. The dynamic surface tension was measured for solutions of TBPEM-6 and TBPEM-8 in mains water at room temperature (22° C.) and at the typical spray mixture concentrations of 0.3, 1, and 3 g/l.

[2] = tested on: apple cuticles; assay: Percentage penetration of benzyladenine through apple cuticles with and without TBPEM-6; assay type: in vitro ADME; conditions: 0.2 g/l benzyladenine in acetone/mains water, no additive
Description: The method described in the literature (Baur et al., 1997, Pesticide Science 51, 131-152) can be used for determining these properties.
The penetration of the growth promoter benzyladenine (benzylamonopurin) through leaf cuticles was measured at an active ingredient concentration of 0.2 g/l benzyladenine in acetone/mains water, with and without TBPEM-6, at different practically relevant concentrations, 5 hours and 24 hours after application.

| Dynamic surface tension ([1]; 0.3 g/L in mains water, 20 ms) [mN/m] | Dynamic surface tension ([1]; 0.3 g/L in mains water, 100 ms) [mN/m] | Dynamic surface tension ([1]; 0.3 g/L in mains water, 200 ms) [mN/m] | Dynamic surface tension ([1]; 1 g/L in mains water, 20 ms) [mN/m] | Dynamic surface tension ([1]; 1 g/L in mains water, 100 ms) [mN/m] | Dynamic surface tension ([1]; 1 g/L in mains water, 200 ms) [mN/m] | Dynamic surface tension ([1]; 3 g/L in mains water, 20 ms) [mN/m] | Dynamic surface tension ([1]; 3 g/L in mains water, 100 ms) [mN/m] | Dynamic surface tension ([1]; 3 g/L in mains water, 200 ms) [mN/m] | Molecule | Suitability as wetting agent from dynamic surface tension ([1]; spray application timescale) | Percentage penetration of benzyladenine ([2]; 5 h) [%] | Percentage penetration of benzyladenine ([2]; 24 h) [%] |
| --- | --- | --- | --- | --- | --- | --- | --- | --- | --- | --- | --- | --- |
| 70.3 | 65.0 | 62.8 | 62.9 | 54.1 | 52.5 | 55.5 | 42.9 | 41.8 | 2,4,6-tributylphenoxy-ethoxy(6) methyl ether [TBPEM-6] | excellent suitability as a rapid wetting agent |  |  |
|  |  |  |  |  |  |  |  |  | c1ccc(CNc2ncnc3nc[nH]c23)cc1 [Benzyladenine, benzyladenine] |  | 2.0 | 3.7 |
| 69.9 | 64.6 | 61.4 | 67.3 | 58.6 | 53.2 | 63.4 | 51.8 | 46 | tributylphenol ethoxylate(6) [Sapogenat T 060] |  |  |  |
